{"source": "ChEMBL document CHEMBL5143570", "about": "“Development of naringenin-O-carbamate derivatives as multi-target-directed liagnds for the treatment of Alzheimer's disease” (Bioorg Med Chem Lett, 2022)", "key": {"L02": {"test_system": "L02", "assay": "Cytotoxicity against human L02 cells assessed as decrease in cell viability at 40 uM by MTT assay relative to control", "type": "toxicity, cell-based", "conditions": "l02, 40 µM"}, "[1]": {"biological_target": "Amyloid-beta precursor protein (Homo sapiens) (UniProt P05067)", "sequence (P05067 whole entry)": "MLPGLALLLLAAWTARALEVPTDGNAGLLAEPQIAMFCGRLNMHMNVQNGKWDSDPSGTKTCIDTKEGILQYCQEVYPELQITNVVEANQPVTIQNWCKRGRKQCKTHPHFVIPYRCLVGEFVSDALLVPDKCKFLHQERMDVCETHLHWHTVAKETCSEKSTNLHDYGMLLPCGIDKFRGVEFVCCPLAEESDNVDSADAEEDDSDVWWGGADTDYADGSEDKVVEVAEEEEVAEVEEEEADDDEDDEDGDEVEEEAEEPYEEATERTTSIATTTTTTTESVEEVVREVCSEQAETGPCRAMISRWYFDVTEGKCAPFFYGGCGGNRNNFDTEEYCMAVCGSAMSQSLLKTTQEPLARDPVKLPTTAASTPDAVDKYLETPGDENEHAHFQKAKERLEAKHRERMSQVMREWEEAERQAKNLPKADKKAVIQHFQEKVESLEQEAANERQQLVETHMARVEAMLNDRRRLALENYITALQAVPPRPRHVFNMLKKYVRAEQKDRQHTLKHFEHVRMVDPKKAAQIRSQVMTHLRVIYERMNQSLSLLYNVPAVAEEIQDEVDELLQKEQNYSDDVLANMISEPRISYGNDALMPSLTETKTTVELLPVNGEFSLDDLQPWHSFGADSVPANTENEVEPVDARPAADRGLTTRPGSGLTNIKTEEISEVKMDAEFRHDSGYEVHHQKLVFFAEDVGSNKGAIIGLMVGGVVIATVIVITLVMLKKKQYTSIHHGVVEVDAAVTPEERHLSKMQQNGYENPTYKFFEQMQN", "assay": "Inhibition of amyloid beta (1 to 42 ) (unknown origin) self-induced aggregation at 25 uM by thioflavin-T fluorescence method relative to control"}, "[2]": {"assay": "Effect on tau protein expression in pRK5-GFP-Tau P301L plasmid transfected mouse HT-22 cells assessed as reduction in fluorescence intensity at 5 uM by fluorescence microscopic analysis (reference value: 35.0)", "type": "functional"}, "[3]": {"assay": "Effect on tau protein expression in pRK5-GFP-Tau P301L plasmid transfected mouse HT-22 cells assessed as reduction in fluorescence intensity at 20 uM by fluorescence microscopic analysis (reference value: 35.0)", "type": "functional"}, "[4]": {"assay": "Antioxidant activity assessed as trolox equivalent of ORAC radical scavenging activity by ORAC-FL assay", "type": "functional"}, "[5]": {"assay": "Effect on tau protein expression in pRK5-GFP-Tau plasmid transfected mouse HT-22 cells assessed as reduction in fluorescence intensity at 10 uM incubated for 24 hrs by fluorescence microscopic analysis (reference value: 36.8)", "type": "functional"}, "[6]": {"assay": "Inhibition of LPS-induced TNFalpha production in mouse BV-2 cells assessed as TNFalpha level at 10 uM by ELISA analysis relative to control", "type": "functional"}, "[7]": {"assay": "Inhibition of LPS-induced NO production in mouse BV-2 cells at 5 uM by Griess reaction method relative to control", "type": "functional"}, "[8]": {"assay": "Inhibition of LPS-induced TNFalpha production in mouse BV-2 cells assessed as TNFalpha level at 10 uM by ELISA analysis", "type": "functional"}, "[9]": {"assay": "Permeability of compound at 100 ug/mL by PAMPA-BBB assay"}, "HT-22": {"test_system": "HT-22", "assay": "Effect on APP protein expression in pEGFP-N1-APP plasmid transfected mouse HT-22 cells assessed as fluorescence intensity by measuring decrease in GFP level incubated for 24 hrs by western blot analysis", "type": "functional, cell-based", "conditions": "dose 5-20 µM, DDE = dose-dependent effect"}, "PC-12": {"test_system": "PC-12", "assay": "Cytotoxicity against rat PC-12 cells assessed as reduction in cell viability measured upto 40 uM incubated for 72 hrs by MTT assay", "type": "toxicity, cell-based", "conditions": "pc-12, 72 h"}}}
{"smiles": "CCN(C)C(=O)Oc1ccc(C2CC(=O)c3c(O)cc(OC(=O)N(C)CC)cc3O2)cc1", "note": "(configuration not stated)", "values": [{"measurement": "Activity", "setting": "L02", "value": 73.2, "unit": "%"}, {"measurement": "inhibition", "setting": "[1]", "value": 60.9, "unit": "%"}, {"measurement": "Flu intensity", "setting": "[2]", "value": 18.4}, {"measurement": "Flu intensity", "setting": "[3]", "value": 3.88}, {"measurement": "Activity", "setting": "[4]", "value": 1}, {"measurement": "Flu intensity", "setting": "[5]", "value": 19}, {"measurement": "inhibition at 10 µM", "setting": "[6]", "value": 68.7, "unit": "%"}, {"measurement": "inhibition at 5 µM", "setting": "[7]", "value": 41.7, "unit": "%"}, {"measurement": "Activity", "setting": "[8]", "value": 532, "unit": "pg/mL"}, {"measurement": "Papp at 100 ug/mL", "setting": "[9]", "value": 16.8, "unit": "×10⁻⁶ cm/s"}, {"measurement": "Activity", "setting": "HT-22", "value": "Dde"}, {"measurement": "Activity", "setting": "PC-12", "value": "Non-Toxic"}]}
